As usually defined, the EC50 is the concentration giving half of the maximal effect. For orientation: CC50 means the concentration that lowers cell viability or growth by half. Low values mean greater toxicity to the cells, high ones lower toxicity to the cells.

Several values for one entry are separate records, joined by “and”; a condition that tells them apart may be missing. Identical values can stand only once. Some results are limits rather than exact numbers.

The values below come from ChEMBL document CHEMBL1156829 (Proc Natl Acad Sci U S A, 2008).

In series [1] the test system is Plasmodium falciparum. As to the kind of experiment: NOVARTIS: Inhibition of Plasmodium falciparum W2 (drug-resistant) proliferation in erythrocyte-based infection assay. The class given is functional, organism-based. Particulars: read-out: EC50.
The subject of series [2] is Plasmodium falciparum. As to the kind of experiment: NOVARTIS: Inhibition of Plasmodium falciparum 3D7 (drug-susceptible) proliferation in erythrocyte-based infection assay. The class given is functional, organism-based.
Series [3] is described as follows: NOVARTIS: Cytotoxicity against human hepatocellular carcinoma cell line (Huh7). It counts as toxicity, cell-based, Huh-7. Particulars: Huh7 cells (hepatocellular carcinoma cell line).

On to `CCCCc1ccc(C(=O)NCCCN(C(=O)Nc2ccc([N+](=O)[O-])cc2)c2ccccc2)cc1`, for which the EC50 in series [1] (Plasmodium falciparum, W2) is 1210 nM; in series [2] (Plasmodium falciparum, 3D7), over 1250 nM. Moreover, the CC50 in series [3] turned out to be 2680 nM.

Take `CCN(CC)Cc1ccc2c(NC(=O)c3ccc(C)s3)c(C(=O)OC)sc2n1`: the EC50 in series [1] (Plasmodium falciparum, W2) is 1190 nM; in series [2] (Plasmodium falciparum, 3D7), 1230 nM. For the same compound, it took 1240 nM to reach half-maximal cytotoxicity in series [3] (CC50).

Take `Cc1oc2c(c1C(=O)NCc1cccnc1)C(=O)c1ccccc1C2=O`: the EC50 in series [1] (Plasmodium falciparum, W2) turned out to be 1750 nM; in series [2] (Plasmodium falciparum, 3D7), 1500 nM. For the same compound, the midpoint of cytotoxicity in series [3], the CC50, lay at 1910 nM.

As for `FC(F)(F)c1cccc(Nc2nc3nonc3nc2Nc2ccc(Br)cc2)c1`, the EC50 in series [1] (Plasmodium falciparum, W2) was 5200 nM; in series [2] (Plasmodium falciparum, 3D7), 7620 nM. In series [3], this compound came in with a CC50 of 7130 nM.

As for `CCOC(=O)c1cnc2ccc(OC)cc2c1O`, the EC50 is 1300 nM in series [1] (Plasmodium falciparum, W2); 721 nM in series [1]; 727 nM and 245 nM in series [2]. The compound further came in with a CC50 in series [3] of over 100000 nM.

As for `Cc1ccc(C=Cc2ccc(N(C)C)cc2)[n+](C)c1`, the figures for the half-maximal effective concentration (EC50) in series [1] and in series [2] were 400 nM and 397 nM, respectively. Also, the CC50 in series [3] is over 60500 nM.

On to `COc1cccc2c1C(=O)c1c(O)c3c(c(O)c1C2=O)C[C@](O)(C(C)=O)C[C@@H]3O[C@H]1C[C@@H](N)[C@H](O)[C@H](C)O1`, for which the EC50 in series [1] (Plasmodium falciparum, W2) is 213 nM; in series [2] (Plasmodium falciparum, 3D7) it was 308 nM. The compound further yielded a cytotoxic concentration (CC50) in series [3] of 129 nM.

As to `CN(C=Cc1sc2ccc3ccccc3c2[n+]1C)c1ccccc1`, the figures for the half-maximal effective concentration (EC50) in series [1] and in series [2] were 153 nM and 239 nM, respectively. This compound came in with a CC50 in series [3] of 64300 nM.

With `O=C(NCCC1=CCCCC1)c1ccc2c(=O)n(-c3ccccc3)c(SCc3nc4ccccc4[nH]3)nc2c1`, the EC50 is 1460 nM in series [1] (Plasmodium falciparum, W2) and over 1250 nM in series [2] (Plasmodium falciparum, 3D7). This compound also returned a CC50 in series [3] of over 912 nM.

Turning to `CCCCCCC1CCC(O)(C(C)(O)C(=O)NC2C(=O)N3NCCCC3C(=O)N(O)C(COC)C(=O)NCC(=O)N3NCCCC3C(=O)N(O)C(C)C(=O)OC2C)OC1C` (centres undefined), the concentration for a half-maximal effect (EC50) in series [1] (Plasmodium falciparum, W2) was 124 nM; in series [2] (Plasmodium falciparum, 3D7), 219 nM. In series [3], this compound showed a CC50 of 197 nM.

In the case of `COc1ccc(CN2CCC(Sc3ncccn3)CC2)cc1`, the 50% effective concentration (EC50) in series [1] (Plasmodium falciparum, W2) is 950 nM; in series [2] (Plasmodium falciparum, 3D7) it was over 1440 nM. The CC50 in series [3] is 702 nM.

Take `c1ccc(CNc2nc(-c3ccccn3)nnc2-c2ccccc2)cc1`: the EC50 in series [1] (Plasmodium falciparum, W2) came out at 326 nM; in series [2] (Plasmodium falciparum, 3D7), 182 nM. For the same compound, the CC50 in series [3] came to 630 nM.

As to `CN[C@H]1C[C@@H]2O[C@](C)([C@H]1O)n1c3ccccc3c3c4c(c5c6ccccc6n2c5c31)C(=O)NC4`, the EC50 was found to be 52.1 nM in series [1] (Plasmodium falciparum, W2) and 55.4 nM in series [2] (Plasmodium falciparum, 3D7). Further, in series [3], it took 32.3 nM to reach half-maximal cytotoxicity (CC50).

With `CC(C)CC[n+]1ccccc1C=Cc1ccc(N(C)C)cc1`, the EC50 in series [1] is 150 nM; in series [2] it was 82.9 nM. The same compound came in with a cytotoxic concentration (CC50) in series [3] of over 30000 nM.

On to `CC1=CC[C@@H](/C(C)=C/c2csc(C)n2)OC(=O)C[C@H](O)C(C)(C)C(=O)[C@H](C)[C@@H](O)[C@@H](C)CCC1`, for which the EC50 worked out at 25.8 nM in series [1] (Plasmodium falciparum, W2) and 85.4 nM in series [2] (Plasmodium falciparum, 3D7). Further, it took 6.21 nM to reach half-maximal cytotoxicity in series [3] (CC50).

On to `O=C(Nc1cccc(Cl)c1)Nc1cc(C(F)(F)F)cc(C(F)(F)F)c1`, for which the EC50 in series [1] (Plasmodium falciparum, W2) was over 9990 nM; in series [2] (Plasmodium falciparum, 3D7) it was 3220 nM. The compound further returned a CC50 in series [3] of 19500 nM.

`CCN(CC)c1ccc(/C=C(/C#N)c2nc3ccccc3[nH]2)o1`: the concentration for a half-maximal effect (EC50) in series [1] (Plasmodium falciparum, W2) is over 702 nM; in series [2] (Plasmodium falciparum, 3D7) it was over 1250 nM. The CC50 in series [3] was over 333 nM.

As for `Nc1nc(N)c2cc(S(=O)(=O)N3CCOCC3)ccc2n1`, the EC50 is over 12500 nM in series [1] (Plasmodium falciparum, W2) and 62.6 nM in series [2] (Plasmodium falciparum, 3D7). In series [3], this compound registered a CC50 of 5050 nM.

For `O=C(Cc1cccnc1)N1CCC(Oc2ccncc2)CC1`, the EC50 in series [1] (Plasmodium falciparum, W2) came to 141 nM; in series [2] (Plasmodium falciparum, 3D7), 626 nM. The midpoint of cytotoxicity in series [3], the CC50, lay at 104 nM.

Take `Cc1ccccc1N=c1oc2ccc3ccccc3c2cc1-c1nc2ccccc2[nH]1`: the EC50 in series [1] (Plasmodium falciparum, W2) was over 1250 nM; in series [2] (Plasmodium falciparum, 3D7), over 997 nM. For the same compound, the CC50 in series [3] was over 2100 nM.

Consider `CC(C)CC(N)C(=O)NCCCNc1nsc2ccccc12` (centres undefined), for which the EC50 in series [1] (Plasmodium falciparum, W2) is over 12100 nM; in series [2] (Plasmodium falciparum, 3D7) it was 2820 nM. For the same compound, in series [3], it took 15900 nM to reach half-maximal cytotoxicity (CC50).

For the compound `CC[C@H](C)C[C@H]1CC[C@](O)([C@](C)(O)C(=O)N[C@@H]2C(=O)N3NCCC[C@@H]3C(=O)N(O)[C@@H](C)C(=O)NCC(=O)N3NCCC[C@H]3C(=O)N(O)[C@H](C)C(=O)O[C@H]2C(C)C)O[C@@H]1C`, the EC50 was determined as 567 nM in series [1] (Plasmodium falciparum, W2) and 438 nM in series [2] (Plasmodium falciparum, 3D7). Also, the CC50 in series [3] was 465 nM.

On to `CN(C)c1cc[n+](Cc2c(Cl)cccc2Cl)cc1`, for which the EC50 in series [1] (Plasmodium falciparum, W2) worked out at 598 nM; in series [2] (Plasmodium falciparum, 3D7), 140 nM. Further, the CC50 in series [3] turned out to be 642 nM.

`CC(=O)Nc1ccc2c(c1)C(=O)N(C(C(=O)NCc1ccccc1)C1CCCCC1)[C@@H](Cc1ccc(O)cc1)C(=O)N2` (some centres undefined): the EC50 was 555 nM in series [1] (Plasmodium falciparum, W2) and 807 nM in series [2] (Plasmodium falciparum, 3D7). Further, in series [3], the midpoint of cytotoxicity, the CC50, lay at 659 nM.

On to `CCC1CC2CCC(O2)C(C)C(=O)OC(C)CC2CCC(O2)C(C)C(=O)OC(CC)CC2CCC(O2)C(C)C(=O)OC(C)CC2CCC(O2)C(C)C(=O)O1` (centres undefined), for which the EC50 in series [1] (Plasmodium falciparum, W2) is 228 nM; in series [2] (Plasmodium falciparum, 3D7), 162 nM. In series [3], this compound had a CC50 of 356 nM.

In the case of `COC(=O)c1ccc(C2C3=C(O)CC(c4ccc(C)cc4)CC3=Nc3ccccc3N2C(=O)c2cccs2)cc1` (centres undefined), the EC50 in series [1] was 808 nM and 264 nM; in series [2], 328 nM and 88 nM. Moreover, the CC50 in series [3] is over 100000 nM.
